Source: PMC8155022 (Scientific Reports, 2021)
Read-outs that look alike come from different tables or passages of the source.

Legend:
[1] = target: TRα (Homo sapiens, UniProt P10827); experiment: nuclear receptor cellular GAL4 reporter assay; assay type: cell-based; conditions: agonist and antagonist mode; read-out: potency in agonist and antagonist mode
[2] = target: T1, LXRβ (Homo sapiens, UniProt P55055); experiment: nuclear receptor cellular GAL4 reporter assay; assay type: cell-based; conditions: agonist and antagonist mode; read-out: potency in agonist and antagonist mode
T1 construct: expressed in transfected cells

[3] = target: T2, PXR (Homo sapiens, UniProt O75469); experiment: nuclear receptor cellular GAL4 reporter assay; assay type: cell-based
T2 construct: expressed in transfected cells

[4] = target: T3, ERβ (Homo sapiens, UniProt Q92731); experiment: nuclear receptor cellular GAL4 reporter assay; assay type: cell-based; conditions: agonist and antagonist mode; read-out: potency in agonist and antagonist mode
T3 construct: expressed in transfected cells

[5] = target: T4, GR (Homo sapiens, UniProt P04150); experiment: nuclear receptor cellular GAL4 reporter assay; assay type: cell-based; conditions: agonist and antagonist mode; read-out: potency in agonist and antagonist mode
T4 construct: expressed in transfected cells

[6] = target: T5, M2 (h) (Homo sapiens, UniProt P08172); experiment: Cerep panel; assay type: binding
T5 construct: purchased Cerep (receptors, ion channels, transporters); Eurofins Panlabs (kinases)
Procedure: A panel of 52 different receptors, ion channels and transporters was tested by Cerep, Inc. (Redmond, WA).

[7] = target: 5HT6 (Homo sapiens, UniProt P50406); experiment: GPCR panel, cAMP or calcium FLIPR assays; assay type: cell-based
Procedure: (§2) 28 GPCRs were evaluated through cAMP or calcium FLIPR assays[67].

[8] = target: 5HT7 (Homo sapiens, UniProt P34969); experiment: GPCR panel, cAMP or calcium FLIPR assays; assay type: cell-based
Procedure: as §2

[9] = target: D1 (Homo sapiens, UniProt P21728); experiment: GPCR panel, cAMP or calcium FLIPR assays; assay type: cell-based
Procedure: as §2

[10] = target: T6, CDK1/cyclinB(h) (Homo sapiens, UniProt P06493); experiment: Kinase panel; assay type: biochemical
T6 construct: purchased Cerep (receptors, ion channels, transporters); Eurofins Panlabs (kinases)
Procedure: (§3) Kinase selectivity was conducted by Eurofins Panlabs Inc (St Charles, MO).

[11] = target: T7, Flt3(h) (Homo sapiens, UniProt P36888); experiment: Kinase panel; assay type: biochemical
T7 construct: purchased Cerep (receptors, ion channels, transporters); Eurofins Panlabs (kinases)
Procedure: as §3

[12] = target: T8, GSK3α(h) (Homo sapiens, UniProt P49840); experiment: Kinase panel; assay type: biochemical
T8 construct: purchased Cerep (receptors, ion channels, transporters); Eurofins Panlabs (kinases)
Procedure: as §3

[13] = target: T9, JAK2(h) (Homo sapiens, UniProt O60674); experiment: Kinase panel; assay type: biochemical
T9 construct: purchased Cerep (receptors, ion channels, transporters); Eurofins Panlabs (kinases)
Procedure: as §3

[14] = target: T10, TrkC(h) (Homo sapiens, UniProt Q16288); experiment: Kinase panel; assay type: biochemical
T10 construct: purchased Cerep (receptors, ion channels, transporters); Eurofins Panlabs (kinases)
Procedure: as §3

[15] = target: hNav1.5 (Homo sapiens, UniProt Q14524); experiment: follow-up functional study; assay type: cell-based; conditions: read-out: IC50 in follow-up functional studies
[16] = 1-month GLP toxicity study in rats; assay type: in vivo; conditions: Sprague-Dawley, in vivo, rat; for AUC(0-t) / Cmax: po, 400 mg/kg/day; for AUC(0-t): read-out: AUC0-24 h at NOAEL; for Cmax: read-out: Cmax at NOAEL
Procedure: (§1) The type of study plan was reviewed and agreed by the Laboratory Animal Welfare Officer and the Animal Ethical Committee (officially known as Dierexperimentencommissie (DEC) Charles River Den Bosch), as required by the Dutch Act on Animal Experimentation (February 1997). Both rat and dog studies were performed in AALAC accredited Charles River Laboratories in the Netherlands. Studies in rats were conducted with 0, 25, 100, and 400 mg/kg per day (n = 10/sex/group) for 1 month. An additional 5 animals/sex in vehicle and high dose were allowed to continue for a 1-month treatment-free recovery period. Studies in dogs were conducted with 0, 3, 10, and 30 mg/kg per day (n = 4/sex/group) for 1 month. A treatment-free recovery period of 1 month (additional 2 dogs/sex/group) was included for both vehicle controls and high dose groups. […] Rats and dogs were examined for mortality, clinical signs, ophthalmoscopic changes, body weight, food consumption, hematology, clinical chemistry, anatomic pathology, and toxicokinetics. In addition, dogs were examined for electrocardiographic changes. Rats and dogs were also assessed for reversal of any effects following a 1-month recovery period. These studies were conducted in compliance with good laboratory practice (GLP) regulations.

[17] = system: Sprague–Dawley rats; experiment: 1-month GLP toxicity study in rats; assay type: in vivo; conditions: rat; recovered after 1-month recovery period
Procedure: as §1

[18] = phase 1 single ascending dose study, pharmacokinetics; assay type: in vivo, human; conditions: for Tmax: median (range)
Procedure: Based on mean values, dose normalized overall exposure (AUC216h, AUC∞) also appeared to increase proportionally with dose.
Informed consent was obtained from all participants. No formal sample size and power calculations were performed.
Plasma samples with K2EDTA anticoagulant were treated with acetonitrile for protein extraction then processed with liquid chromatography coupled to tandem mass spectrometry. Reversed-phase HPLC separation was used and tandem MS/MS detection was set in TIS positive mode. […] All the data reported in sample analysis and validation met the predefined acceptance criteria and fulfilled the requirements and recommendations in the current FDA guidance for bioanalytical method validations and analysis.

[19] = both sexes, human, plasma, po, 10 mg, 10 mg single oral dose, fasted, n=6, mean (SD)
[20] = both sexes, human, plasma, po, 30 mg, 30 mg single oral dose, fasted, n=6, mean (SD)
[21] = both sexes, human, plasma, po, 100 mg, 100 mg single oral dose, fasted, n=9, mean (SD)
[22] = both sexes, human, plasma, po, 100 mg, 100 mg single oral dose, fed, n=9, mean (SD)
[23] = both sexes, human, plasma, po, 200 mg, 200 mg single oral dose, fasted, n=6, mean (SD)

Chain of D1 (P21728 whole entry): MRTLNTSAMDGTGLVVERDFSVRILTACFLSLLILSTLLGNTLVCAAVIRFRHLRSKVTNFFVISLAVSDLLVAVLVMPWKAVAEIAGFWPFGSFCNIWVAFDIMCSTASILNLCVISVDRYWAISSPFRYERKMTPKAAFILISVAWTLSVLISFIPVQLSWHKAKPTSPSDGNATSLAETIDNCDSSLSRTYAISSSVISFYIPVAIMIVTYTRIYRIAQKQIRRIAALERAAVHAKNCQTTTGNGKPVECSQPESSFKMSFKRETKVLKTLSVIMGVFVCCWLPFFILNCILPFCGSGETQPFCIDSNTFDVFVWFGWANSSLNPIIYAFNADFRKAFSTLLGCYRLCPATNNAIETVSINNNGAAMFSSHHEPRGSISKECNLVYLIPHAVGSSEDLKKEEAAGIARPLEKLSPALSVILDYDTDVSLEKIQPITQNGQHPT
Chain of 5HT6 (P50406 whole entry): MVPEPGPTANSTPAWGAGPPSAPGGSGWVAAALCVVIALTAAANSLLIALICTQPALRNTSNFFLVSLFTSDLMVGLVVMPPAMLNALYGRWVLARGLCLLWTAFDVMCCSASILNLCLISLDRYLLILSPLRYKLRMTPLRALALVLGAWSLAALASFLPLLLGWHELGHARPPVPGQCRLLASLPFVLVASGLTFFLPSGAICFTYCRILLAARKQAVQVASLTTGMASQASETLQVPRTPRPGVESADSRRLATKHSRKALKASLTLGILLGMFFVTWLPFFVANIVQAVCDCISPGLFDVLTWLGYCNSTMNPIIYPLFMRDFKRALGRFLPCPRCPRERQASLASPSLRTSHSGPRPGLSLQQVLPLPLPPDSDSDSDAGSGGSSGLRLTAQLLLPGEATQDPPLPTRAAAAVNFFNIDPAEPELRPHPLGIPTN
T5 sequence (P08172 whole entry): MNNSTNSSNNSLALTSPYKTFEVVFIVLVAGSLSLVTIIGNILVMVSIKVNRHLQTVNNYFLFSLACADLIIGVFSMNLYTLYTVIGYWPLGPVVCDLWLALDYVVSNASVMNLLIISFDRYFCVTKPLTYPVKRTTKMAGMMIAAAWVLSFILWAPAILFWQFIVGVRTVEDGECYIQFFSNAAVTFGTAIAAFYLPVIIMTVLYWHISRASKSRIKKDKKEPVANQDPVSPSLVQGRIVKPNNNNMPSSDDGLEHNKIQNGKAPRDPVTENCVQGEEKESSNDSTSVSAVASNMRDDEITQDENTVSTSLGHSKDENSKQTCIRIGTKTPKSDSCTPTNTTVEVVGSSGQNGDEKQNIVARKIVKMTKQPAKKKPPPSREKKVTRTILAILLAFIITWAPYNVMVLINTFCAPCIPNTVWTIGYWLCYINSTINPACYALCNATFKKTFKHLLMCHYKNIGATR
T7 sequence (P36888 27-993): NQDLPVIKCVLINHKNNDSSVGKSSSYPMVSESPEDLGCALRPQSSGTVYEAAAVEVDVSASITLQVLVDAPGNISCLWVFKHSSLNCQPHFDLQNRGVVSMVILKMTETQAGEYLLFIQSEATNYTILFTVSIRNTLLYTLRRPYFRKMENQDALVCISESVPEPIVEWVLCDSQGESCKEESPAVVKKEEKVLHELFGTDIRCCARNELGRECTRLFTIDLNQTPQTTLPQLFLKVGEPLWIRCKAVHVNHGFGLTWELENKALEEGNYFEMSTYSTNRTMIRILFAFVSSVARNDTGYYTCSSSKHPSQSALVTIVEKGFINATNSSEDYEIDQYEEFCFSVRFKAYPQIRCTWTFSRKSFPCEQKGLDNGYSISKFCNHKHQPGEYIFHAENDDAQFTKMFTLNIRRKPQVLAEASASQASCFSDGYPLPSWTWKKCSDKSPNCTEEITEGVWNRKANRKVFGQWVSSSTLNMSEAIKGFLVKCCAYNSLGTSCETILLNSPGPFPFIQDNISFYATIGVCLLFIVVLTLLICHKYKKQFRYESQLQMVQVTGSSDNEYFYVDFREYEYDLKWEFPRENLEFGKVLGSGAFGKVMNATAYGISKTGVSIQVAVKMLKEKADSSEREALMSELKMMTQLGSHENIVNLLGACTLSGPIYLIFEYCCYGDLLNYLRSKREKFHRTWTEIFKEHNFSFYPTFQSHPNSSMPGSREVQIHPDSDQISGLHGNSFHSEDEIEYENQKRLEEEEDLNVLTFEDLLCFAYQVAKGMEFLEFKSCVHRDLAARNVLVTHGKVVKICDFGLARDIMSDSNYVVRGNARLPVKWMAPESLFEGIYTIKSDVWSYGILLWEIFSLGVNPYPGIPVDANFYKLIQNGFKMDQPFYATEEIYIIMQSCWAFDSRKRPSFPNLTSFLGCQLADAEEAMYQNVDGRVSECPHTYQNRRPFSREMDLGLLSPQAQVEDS
T2 sequence (O75469 whole entry, the tested form may be a part): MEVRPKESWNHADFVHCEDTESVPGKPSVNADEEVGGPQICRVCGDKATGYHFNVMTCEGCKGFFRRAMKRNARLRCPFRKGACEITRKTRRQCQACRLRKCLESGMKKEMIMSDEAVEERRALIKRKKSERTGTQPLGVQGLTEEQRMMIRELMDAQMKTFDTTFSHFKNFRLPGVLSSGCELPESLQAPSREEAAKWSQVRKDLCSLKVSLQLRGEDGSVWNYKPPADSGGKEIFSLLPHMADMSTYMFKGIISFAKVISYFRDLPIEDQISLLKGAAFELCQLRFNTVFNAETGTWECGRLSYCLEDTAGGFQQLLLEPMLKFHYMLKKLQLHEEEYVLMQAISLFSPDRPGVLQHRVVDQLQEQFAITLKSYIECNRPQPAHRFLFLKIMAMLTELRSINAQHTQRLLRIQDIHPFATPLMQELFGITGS
Chain of 5HT7 (P34969 whole entry): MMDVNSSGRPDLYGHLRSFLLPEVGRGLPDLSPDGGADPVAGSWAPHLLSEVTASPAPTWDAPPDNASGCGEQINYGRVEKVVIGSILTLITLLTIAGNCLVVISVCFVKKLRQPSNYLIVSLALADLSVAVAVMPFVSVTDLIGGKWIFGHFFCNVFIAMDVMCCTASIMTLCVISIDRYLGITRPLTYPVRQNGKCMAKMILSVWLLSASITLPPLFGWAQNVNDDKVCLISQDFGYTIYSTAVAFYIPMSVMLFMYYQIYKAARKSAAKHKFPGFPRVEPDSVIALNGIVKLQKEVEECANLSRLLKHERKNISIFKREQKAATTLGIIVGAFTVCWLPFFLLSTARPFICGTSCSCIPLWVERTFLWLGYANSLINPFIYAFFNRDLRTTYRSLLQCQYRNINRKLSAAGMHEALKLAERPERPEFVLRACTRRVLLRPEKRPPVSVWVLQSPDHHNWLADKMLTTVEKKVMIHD
T8 sequence (P49840 whole entry): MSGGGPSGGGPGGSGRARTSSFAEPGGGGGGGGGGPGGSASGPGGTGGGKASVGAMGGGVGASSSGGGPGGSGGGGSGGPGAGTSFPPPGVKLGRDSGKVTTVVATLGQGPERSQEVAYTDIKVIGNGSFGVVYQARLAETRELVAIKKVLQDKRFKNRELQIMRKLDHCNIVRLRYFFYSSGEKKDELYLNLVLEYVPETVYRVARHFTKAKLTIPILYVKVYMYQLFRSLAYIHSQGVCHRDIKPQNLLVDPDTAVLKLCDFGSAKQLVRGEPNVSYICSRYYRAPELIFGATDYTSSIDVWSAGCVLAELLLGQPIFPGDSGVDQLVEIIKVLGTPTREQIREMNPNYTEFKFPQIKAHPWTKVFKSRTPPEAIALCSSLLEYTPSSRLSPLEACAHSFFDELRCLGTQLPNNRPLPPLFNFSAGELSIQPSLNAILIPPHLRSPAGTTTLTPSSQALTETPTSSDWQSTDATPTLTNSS
T10 sequence (Q16288 32-839): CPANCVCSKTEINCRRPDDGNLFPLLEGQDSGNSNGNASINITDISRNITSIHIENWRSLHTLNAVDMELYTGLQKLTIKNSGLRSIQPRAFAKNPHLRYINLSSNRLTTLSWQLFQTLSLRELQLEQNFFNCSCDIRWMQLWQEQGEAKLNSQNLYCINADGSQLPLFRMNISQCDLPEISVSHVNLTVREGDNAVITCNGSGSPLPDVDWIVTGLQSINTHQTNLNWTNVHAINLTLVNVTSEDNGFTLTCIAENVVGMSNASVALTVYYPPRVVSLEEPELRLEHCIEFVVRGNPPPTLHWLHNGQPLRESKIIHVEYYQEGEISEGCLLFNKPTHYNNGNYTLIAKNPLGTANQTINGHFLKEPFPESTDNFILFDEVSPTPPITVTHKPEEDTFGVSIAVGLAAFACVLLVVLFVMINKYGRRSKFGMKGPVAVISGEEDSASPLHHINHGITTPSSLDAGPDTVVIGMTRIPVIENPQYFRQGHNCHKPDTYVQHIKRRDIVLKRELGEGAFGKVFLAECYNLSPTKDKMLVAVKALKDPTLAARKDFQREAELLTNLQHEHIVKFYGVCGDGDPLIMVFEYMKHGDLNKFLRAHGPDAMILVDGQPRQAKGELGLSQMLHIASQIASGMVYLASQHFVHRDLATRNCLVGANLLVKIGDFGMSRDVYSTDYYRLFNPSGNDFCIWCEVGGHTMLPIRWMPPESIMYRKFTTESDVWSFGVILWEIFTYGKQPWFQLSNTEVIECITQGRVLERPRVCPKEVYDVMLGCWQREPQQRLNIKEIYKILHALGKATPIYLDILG
T1 sequence (P55055 whole entry, the tested form may be a part): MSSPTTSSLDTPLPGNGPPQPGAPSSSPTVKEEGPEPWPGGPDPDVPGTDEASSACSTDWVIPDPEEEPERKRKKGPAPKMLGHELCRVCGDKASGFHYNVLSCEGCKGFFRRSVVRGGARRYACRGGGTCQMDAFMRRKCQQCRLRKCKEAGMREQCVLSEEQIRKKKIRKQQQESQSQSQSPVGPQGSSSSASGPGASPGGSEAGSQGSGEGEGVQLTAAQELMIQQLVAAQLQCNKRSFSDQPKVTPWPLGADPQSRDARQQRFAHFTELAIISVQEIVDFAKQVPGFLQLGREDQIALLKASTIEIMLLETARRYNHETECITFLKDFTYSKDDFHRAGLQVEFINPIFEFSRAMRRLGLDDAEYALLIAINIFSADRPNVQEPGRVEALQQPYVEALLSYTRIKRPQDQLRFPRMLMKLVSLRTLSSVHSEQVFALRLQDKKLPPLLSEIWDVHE

For `CC1CCCN1C(=O)c1nc(C(=O)NCC(C)(C)O)sc1-c1ccc(C(O)(C(F)(F)F)C(F)(F)F)c(Cl)c1Cl` (stereo not shown) [JNJ-61803534], the IC50 [1] was over 1.5 µM, the IC50 [2] was over 1.5 µM and the “mode of action on PXR” value [3] was “possibly partial modulator”. It also gave an IC50 ([3]; agonist and antagonist mode) of 0.34 µM, an IC50 [4] of over 1.5 µM and an IC50 [5] of over 1.5 µM. It also gave an inhibition at 1 µM [6] of under 10%, an inhibition at 10 µM [6] of under 10% and an EC50 ([7]; agonist) of over 12.5 µM. For the same compound, the IC50 ([7]; antagonist) was over 12.5 µM, the EC50 ([8]; agonist) was over 12.5 µM and the IC50 ([8]; antagonist) was over 12.5 µM. The EC50 ([9]; agonist) was over 12.5 µM, the IC50 ([9]; antagonist) was over 12.5 µM and the activity at 1 µM [10] was 96%. The activity at 10 µM [10] was 108%, the activity at 1 µM [11] was 84% and the activity at 10 µM [11] was 103%. It also gave an activity at 1 µM [12] of 93%, an activity at 10 µM [12] of 104% and an activity at 1 µM [13] of 109%. The activity at 10 µM [13] was 105%, the activity at 1 µM [14] was 92% and the activity at 10 µM [14] was 88%. For the same compound, the IC50 [15] was over 30 µM, the AUC(0-t) ([16]; female) was 376000 ng·h/mL and the Cmax ([16]; female) was 24200 ng/mL. The AUC(0-t) ([16]; male) was 310000 ng·h/mL, the Cmax ([16]; male) was 29600 ng/mL and the NOAEL at 1 month ([16]; both sexes, 1 month oral, highest dose tested, read-out: no-observed-adverse-effect level (NOAEL)) was 400 mg/kg/day. For the same compound, the “lymphocyte apoptosis in thymus” value [17] was “dose-dependent lymphocyte apoptosis in thymus was observed”, the Tmax ([18]; 100 mg single oral dose, fed, n=9) was 12 h and the AUC(0-inf) [18, 19] was 8480 ng·h/mL. It also gave a Cmax [18, 19] of 35.9 ng/mL, an AUC(0-t) ([18]; both sexes, human, plasma, po, 10 mg, 10 mg single oral dose, fasted, n=6, mean (SD), read-out: AUC216h) of 5180 ng·h/mL and a half-life ([18]; both sexes, human, plasma, po, 10 mg, 10 mg single oral dose, fasted, n=6, mean (SD), read-out: t1/2 (converted)) of 168 h. The Tmax ([18]; both sexes, human, plasma, po, 10 mg, 10 mg single oral dose, fasted, n=6, read-out: tmax) was 10 h, the AUC(0-inf) [18, 20] was 28700 ng·h/mL and the Cmax [18, 20] was 146 ng/mL. It also gave an AUC(0-t) ([18]; both sexes, human, plasma, po, 30 mg, 30 mg single oral dose, fasted, n=6, mean (SD), read-out: AUC216h) of 17400 ng·h/mL, a half-life ([18]; both sexes, human, plasma, po, 30 mg, 30 mg single oral dose, fasted, n=6, mean (SD), read-out: t1/2 (converted)) of 170 h and a Tmax ([18]; both sexes, human, plasma, po, 30 mg, 30 mg single oral dose, fasted, n=6, read-out: tmax) of 6.02 h. It also gave an AUC(0-inf) [18, 21] of 100000 ng·h/mL, a Cmax [18, 21] of 700 ng/mL and an AUC(0-t) ([18]; both sexes, human, plasma, po, 100 mg, 100 mg single oral dose, fasted, n=9, mean (SD), read-out: AUC216h) of 68400 ng·h/mL. The AUC(0-t) ([18]; both sexes, human, plasma, po, 100 mg, 100 mg single oral dose, fasted, n=9, mean (SD), read-out: AUClast) was 99100 ng·h/mL, the half-life ([18]; both sexes, human, plasma, po, 100 mg, 100 mg single oral dose, fasted, n=9, mean (SD), read-out: t1/2 (converted)) was 170 h and the Tmax ([18]; both sexes, human, plasma, po, 100 mg, 100 mg single oral dose, fasted, n=9, read-out: tmax) was 6 h. The AUC(0-inf) [18, 22] was 90400 ng·h/mL, the Cmax [18, 22] was 602 ng/mL and the AUC(0-t) ([18]; both sexes, human, plasma, po, 100 mg, 100 mg single oral dose, fed, n=9, mean (SD), read-out: AUC216h) was 61700 ng·h/mL. It also gave an AUC(0-t) ([18]; both sexes, human, plasma, po, 100 mg, 100 mg single oral dose, fed, n=9, mean (SD), read-out: AUClast) of 89700 ng·h/mL, a half-life ([18]; both sexes, human, plasma, po, 100 mg, 100 mg single oral dose, fed, n=9, mean (SD), read-out: t1/2 (converted)) of 168 h and a Tmax ([18]; both sexes, human, plasma, po, 100 mg, 100 mg single oral dose, fed, n=9, read-out: tmax) of 12 h. It also gave an AUC(0-inf) [18, 23] of 201000 ng·h/mL, a Cmax [18, 23] of 1810 ng/mL and an AUC(0-t) ([18]; both sexes, human, plasma, po, 200 mg, 200 mg single oral dose, fasted, n=6, mean (SD), read-out: AUC216h) of 154000 ng·h/mL. It also gave an AUC(0-t) ([18]; both sexes, human, plasma, po, 200 mg, 200 mg single oral dose, fasted, n=6, mean (SD), read-out: AUClast) of 200000 ng·h/mL, a half-life ([18]; both sexes, human, plasma, po, 200 mg, 200 mg single oral dose, fasted, n=6, mean (SD), read-out: t1/2 (converted)) of 164 h and a Tmax ([18]; both sexes, human, plasma, po, 200 mg, 200 mg single oral dose, fasted, n=6, read-out: tmax) of 6 h. The half-life ([18]; both sexes, human, plasma, po, single oral doses 10 to 200 mg, read-out: plasma half-life, mean T1/2 values across the dose groups) was 164 to 170 h.
